How the values were obtained:
Assay type in all cases: in vivo
[1] = test system: diamondback moth (Plutella xylostella); assay: Insecticidal effect on diamondback moth (Test Example 1); settings: diamondback moth; judged by the mortality criterion of Test Example 1
Procedure, shortened: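 Oviposition by adults on Chinese cabbage seedling; immersion; air-dry; 25° C room. Count of hatched larvae at day 6 post-immersion → mortality → effect graded by criterion. Triplicate, 10 insects/group.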

[2] = test system: rice leafroller (Cnaphalocrocis medinalis); assay: Insecticidal effect on rice leafroller (Test Example 3); settings: 500 ppm; rice lamina immersed; third-instar larvae of rice leafroller; four days after inoculation; 25° C., humidity 70%
Procedure, shortened: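 Insecticidal effect is judged by a predefined criterion from dead/alive counts four days after infesting air-dried lamina with third-instar larvae, kept on moistened filter paper at 25° C, 70% humidity.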

[3] = test system: common cutworm (Spodoptera Litura); assay: Insecticidal effect on common cutworm (Test Example 2); settings: 500 ppm; cabbage leaf immersed; second-instar larvae of common cutworm; eight days after inoculation; 25° C.
Procedure, shortened: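 Insecticidal effect was rated from percent mortality of second-instar larvae exposed to air-dried treatment at 25° C for 8 days.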

Structure (SMILES) | Insecticidal effect, Test Example 1 [1] | Insecticidal effect, Test Example 3 [2] | Insecticidal effect, Test Example 2 [3]
COc1ccc(NC(=O)c2cccc(Cl)c2C(=O)NC(C)C)c(C)c1C [compound 124] | A (100) | A (100) | A (100)
CC(C)NC(=O)c1c(Cl)cccc1C(=O)Nc1ccc(C(F)(F)F)cc1Cl [compound 125] | A (100) | A (100) | B (99-90)
CC(C)NC(=O)c1c(Cl)cccc1C(=O)Nc1ccc(C(F)(C(F)(F)F)C(F)(F)F)cc1Cl [compound 126] | A (100) | A (100) | A (100)
Cc1cc(C(F)(F)F)ccc1NC(=O)c1cccc(Cl)c1C(=O)NC(C)C [compound 127] | A (100) | A (100) | A (100)
Cc1cc(C(F)(F)C(F)(F)F)ccc1NC(=O)c1cccc(Cl)c1C(=O)NC(C)C [compound 128] | A (100) | A (100) | D (79-50)
Cc1cc(OC(F)(F)C(Cl)(Cl)Cl)ccc1NC(=O)c1cccc(Cl)c1C(=O)NC(C)C [compound 129] | A (100) | A (100) | A (100)
Cc1cc(C(F)(F)C(F)(F)C(F)(F)F)ccc1NC(=O)c1cccc(Cl)c1C(=O)NC(C)C [compound 130] | A (100) | A (100) | A (100)
Cc1cc(C(F)(F)C(F)(F)C(F)(F)C(F)(F)F)ccc1NC(=O)c1cccc(Cl)c1C(=O)NC(C)C [compound 132] | A (100) | A (100) | A (100)
Cc1cc(C(F)(F)C(F)(F)C(F)(F)C(F)(F)C(F)(F)C(F)(F)F)ccc1NC(=O)c1cccc(Cl)c1C(=O)NC(C)C [compound 133] | A (100) | A (100) | A (100)
CC(C)NC(=O)c1c(Cl)cccc1C(=O)Nc1ccc(OC(F)(F)F)cc1Cl [compound 135] | A (100) | A (100) | A (100)
CC(C)NC(=O)c1c(Cl)cccc1C(=O)Nc1ccc(OC(F)(F)F)cc1Br [compound 136] | A (100) | A (100) | A (100)
Cc1cc(OC(F)F)ccc1NC(=O)c1cccc(Cl)c1C(=O)NC(C)C [compound 138] | A (100) | A (100) | A (100)
Cc1cc(OC(F)(F)F)ccc1NC(=O)c1cccc(Cl)c1C(=O)NC(C)C [compound 139] | A (100) | A (100) | A (100)
Cc1cc(OC(F)(F)Br)ccc1NC(=O)c1cccc(Cl)c1C(=O)NC(C)C [compound 140] | A (100) | A (100) | A (100)
Cc1c(NC(=O)c2cccc(Cl)c2C(=O)NC(C)C)cccc1OC(F)(F)C(F)Cl (stereo not drawn) [compound 142] | A (100) | B (99-90) | A (100)
Cc1cc(OC(F)(F)C(F)Cl)ccc1NC(=O)c1cccc(Cl)c1C(=O)NC(C)C (stereo not drawn) [compound 143] | A (100) | A (100) | A (100)
Cc1cc(OC(F)(F)C(F)(F)Br)ccc1NC(=O)c1cccc(Cl)c1C(=O)NC(C)C [compound 144] | A (100) | A (100) | A (100)
Cc1cc(OC(F)(F)C(F)(Cl)Cl)ccc1NC(=O)c1cccc(Cl)c1C(=O)NC(C)C [compound 145] | A (100) | A (100) | A (100)

Structure (SMILES) | Insecticidal effect, Test Example 1 [1] | Insecticidal effect, Test Example 3 [2] | Insecticidal effect, Test Example 2 [3]
Cc1cc(OC(F)(F)C(F)C(F)(F)F)ccc1NC(=O)c1cccc(Cl)c1C(=O)NC(C)C (stereo not drawn) [compound 146] | A (100) | A (100) | A (100)
Cc1cc(OC(F)(F)C(F)(Br)C(F)(F)F)ccc1NC(=O)c1cccc(Cl)c1C(=O)NC(C)C (stereo not drawn) [compound 148] | A (100) | A (100) | A (100)
Cc1cc(OC(F)(F)C(F)OC(F)(F)F)ccc1NC(=O)c1cccc(Cl)c1C(=O)NC(C)C (stereo not drawn) [compound 149] | A (100) | A (100) | A (100)
Cc1cc(OC(F)F)c(Cl)cc1NC(=O)c1cccc(Cl)c1C(=O)NC(C)C [compound 150] | A (100) | A (100) | A (100)
Cc1cc(OC(F)(F)C(F)F)c(Cl)cc1NC(=O)c1cccc(Cl)c1C(=O)NC(C)C [compound 152] | A (100) | A (100) | A (100)
Cc1cc(Oc2c(F)c(F)c(F)c(F)c2F)ccc1NC(=O)c1cccc(Cl)c1C(=O)NC(C)C [compound 157] | A (100) | A (100) | A (100)
Cc1cc(Oc2ccc(C(F)(F)F)cn2)ccc1NC(=O)c1cccc(Cl)c1C(=O)NC(C)C [compound 158] | A (100) | A (100) | A (100)
Cc1cc(Oc2ncc(C(F)(F)F)cc2Cl)ccc1NC(=O)c1cccc(Cl)c1C(=O)NC(C)C [compound 159] | A (100) | A (100) | A (100)
CCOP(=O)(OCC)c1ccc(NC(=O)c2cccc(Cl)c2C(=O)NC(C)C)c(C)c1 [compound 161] | A (100) | A (100) | D (79-50)
CC(C)NC(=O)c1c(Cl)cccc1C(=O)Nc1ccc(OC(F)F)cc1C(F)(F)F [compound 163] | A (100) | A (100) | A (100)
CC(C)NC(=O)c1c(Cl)cccc1C(=O)Nc1ccc2oc(C(F)(F)F)nc2c1 [compound 165] | A (100) | C (89-80) | B (99-90)
CC(C)NC(=O)c1c(Cl)cccc1C(=O)Nc1ccc2c(c1)nc(C(F)(F)F)n2C [compound 167] | A (100) | A (100) | A (100)
Cc1ccccc1NC(=O)c1ccc(Cl)cc1C(=O)NC(C)C [compound 170] | A (100) | B (99-90) | D (79-50)
CC(C)NC(=O)c1cc(Cl)ccc1C(=O)Nc1ccc(OC(F)(F)F)cc1 [compound 172] | A (100) | D (79-50) | A (100)
CC(C)NC(=O)c1cc(Cl)ccc1C(=O)Nc1ccc(Cl)cc1Cl [compound 173] | A (100) | D (79-50) | D (79-50)
Cc1c(Cl)cccc1NC(=O)c1ccc(Cl)cc1C(=O)NC(C)C [compound 176] | A (100) | A (100) | D (79-50)
Cc1cc(Cl)ccc1NC(=O)c1ccc(Cl)cc1C(=O)NC(C)C [compound 177] | A (100) | A (100) | A (100)

— patent US6362369B1, “Phthalic acid diamide derivatives fluorine-containing aniline compounds as starting material, agricultural and horticultural insecticides, and a method for application of the insecticides” (Nihon Nohyaku Co., Ltd., priority 1997, dated 2002)
